Where “and” joins values, the source holds several entries; their conditions need not be identical. Equal values may be shown once.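 1) Cells in 96-well plates. 2) Compound, 48 h, 5 concentrations. 3) Linear interpolation between surrounding doses. 4) Unreached endpoint = highest concentration. At the GI50, growth is halved. At the TGI there is no net growth.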
Key:
Assay in all cases: NCI-60 cell line screen, 48 h
[1] = system: SW-620 colon
[2] = system: RXF 393 renal
[3] = system: A549 NSCLC
[4] = system: DMS 114 small cell lung
[5] = system: UO-31 renal
[6] = system: HL-60(TB) leukemia
[7] = system: RPMI-8226 leukemia
[8] = system: ACHN renal
[9] = system: SF-268 CNS
[10] = system: M19-MEL melanoma

SMILES | TGI [1] [µM] | TGI [2] [µM] | TGI [3] [µM] | TGI [4] | TGI [5] [µM] | TGI [6] | TGI [7] | TGI [8] [µM] | TGI [9] [µM] | TGI [10] | GI50 [6] | GI50 [1] [µM] | GI50 [7] | GI50 [2] [µM] | GI50 [3] [µM] | GI50 [8] [µM] | GI50 [5] [µM] | GI50 [9] | GI50 [10] | GI50 [4]
Cc1coc2c1C(=O)C(=O)c1ccccc1-2 | 2.92 | 3.12 | 4.07 | 0.326 µM | 10.4 | – | – | – | – | – | – | – | – | – | – | – | – | – | – | –
Cn1c(=O)nc2n(-c3ccc(Cl)cc3)c(-c3ccccc3)c(-c3ccccc3)nc-2c1=O | > 100 | – | > 100 | > 100 µM | 60.7 | 58.6 µM | 71.1 µM | 49.8 | > 100 | – | – | – | – | – | – | – | – | – | – | –
COC(=O)c1cccc2c3ccccc3c3ccccc3c12 | > 100 | 71.3 | > 100 | 94.7 µM | > 100 | 58.1 µM | – | > 100 | > 100 | > 100 µM | – | – | – | – | – | – | – | – | – | –
C/C(=N\NC(N)=S)c1ccc(C)c(C)c1 | > 100 | 86.4 | > 100 | 38.3 µM | > 100 | 75.4 µM | > 100 µM | > 100 | > 100 | > 100 µM | – | – | – | – | – | – | – | – | – | –
CCCCCCCCOCC(O)CO (stereo unspecified) | > 100 | > 100 | > 100 | > 100 µM | > 100 | > 100 µM | > 100 µM | > 100 | > 100 | > 100 µM | – | – | – | – | – | – | – | – | – | –
O=C1C(=C2CCCC2)CCC1CN1CCCCC1 (stereo unspecified) | 32.1 | 30 | > 100 | 41.2 µM | > 100 | 21.9 µM | – | – | 37.5 | > 100 µM | – | – | – | – | – | – | – | – | – | –
COC(=O)CCC(=O)N1C/C(=C\c2ccccc2)C(=O)/C(=C/c2ccccc2)C1 | 0.389 | 3.74 | 12.3 | 3.56 µM | 3.97 | – | > 100 µM | 3.8 | 5.89 | 11.7 µM | – | – | – | – | – | – | – | – | – | –
CCC/C=C\C=C\C1(NS(=O)(=O)c2ccc(C)cc2)CCC(C(C)(C)C)CC1 (stereo unspecified) | 35.7 | 32.3 | 38.6 | – | 59 | 23.2 µM | 27.2 µM | 53.7 | 40 | 44.9 µM | – | – | – | – | – | – | – | – | – | –
Cc1ccc(Nc2cc(Cl)c([N+](=O)[O-])cc2[N+](=O)[O-])cc1 | 6.82 | 6.66 | 22.1 | – | 17.5 | 14.6 µM | 9.45 µM | 16.2 | 10.3 | – | 3.62 µM | 2.35 | 2.92 µM | 2.57 | 7.76 | 4.73 | 4.71 | 3.63 µM | – | –
CC1=CC(C)(c2c[nH]c3ccccc23)CC(C)(C)c2c1[nH]c1ccccc21 (stereo unspecified) | 32.1 | 26.6 | 28.3 | 36.5 µM | 27.3 | – | 38.9 µM | 44.5 | > 100 | 43.7 µM | – | – | – | – | – | – | – | – | – | –
CCC1C(C)C=NN1c1nc(N)nc(C(C#N)=Nc2ccc(N(C)C)cc2)n1 (stereo unspecified) | 26.8 | 24 | > 50 | – | > 50 | > 50 µM | > 50 µM | 17.1 | 23.2 | – | 7.62 µM | 12.1 | 2.55 µM | 10.3 | 33.9 | 9.17 | 15.1 | 10.6 µM | – | –
O=C(O)C1CC=CCC1C(=O)Nc1cccc(O)c1 (stereo unspecified) | > 100 | > 100 | > 100 | – | > 100 | > 100 µM | > 100 µM | > 100 | > 100 | – | – | – | – | – | – | – | – | – | – | –
CN(C)CCC(/C=C/c1ccccc1)=N\Nc1ccc(Cl)c(Cl)c1 | 13.3 | 9.05 | 10.6 | – | 3.41 | 7.31 µM | 9.53 µM | 4.49 | 8.81 | 15 µM | – | – | – | – | – | – | – | – | – | –
COc1cccc(/C=C/c2nc3c(cnn3-c3ccccc3)c(=O)[nH]2)c1 | > 100 | 67.9 | > 100 | – | > 100 | > 100 µM | > 100 µM | > 100 | > 100 | – | > 62.8 µM | > 31.4 | > 100 µM | 17.3 | > 39.6 | 28.1 | > 56.8 | > 55.6 µM | – | –
CO[C@@H]1CCN(c2nccc(Nc3cc4c(C(C)C)ccc(N5CC(CS(C)(=O)=O)[C@H]5C)c4cn3)n2)C[C@@H]1F (stereo partly specified) | > 100 | 7.65 | > 100 | – | 11.9 | > 100 µM | 7.33 µM | 44.6 | > 100 | – | 3.06 µM | 5.13 | 2.14 µM | 2.96 | 3.06 | 1.33 | 1.41 | 3.98 µM | – | –
Cc1cc(-c2nnc(/C=C/c3ccc4c(c3)OCO4)o2)n[nH]1 | 19.8 | > 50 | > 50 | – | > 50 | 3.99 µM | 32 µM | > 50 | > 50 | – | 1.34 µM | 2.85 | 2.99 µM | 20.9 | 21.4 | 27.2 | 14.7 | 6.5 µM | – | –
C[C@H]1C/C=C/[C@H]2[C@@H]3O[C@]3(C)[C@@H](C)[C@H]3[C@H](Cc4ccccc4)NC(=O)[C@]32OC(=O)O/C=C/[C@@](C)(O)C1=O | – | – | – | 9.99 µM and 20.2 µM and 33.3 µM | 0.0499 | 11.3 µM and 2.95 µM and 4.97 µM | 76.2 µM and 44.9 µM and 32.2 µM | – | – | 24.2 µM and 38.9 µM and 56.8 µM | 0.153 µM and 0.0973 µM | – | 0.235 µM and 0.0493 µM | 0.0125 | 0.0462 | – | – | 0.0125 µM and 0.025 µM | 0.0356 µM and 0.025 µM | 0.0706 µM and 0.025 µM
Nc1c(C(=O)Nc2ccccn2)sc2nc3c(cc12)C(O)CCC3 (stereo unspecified) | > 50 | > 50 | > 50 | – | > 50 | > 50 µM | > 50 µM | > 50 | > 50 | – | 0.562 µM | 1.62 | 1.84 µM | 1.69 | 2.6 | 10.7 | 3.68 | 2.94 µM | – | –
CCOC(=O)C(=O)Nc1cc(Cl)c(Cl)cc1Cl | > 100 | > 100 | – | > 100 µM | > 100 | – | > 100 µM | > 100 | > 100 | > 100 µM | – | – | – | – | – | – | – | – | – | –
CC(C)(C)OC(=O)NCCCCn1c2c(c3ccccc3c1=O)C(=O)c1ccccc1-2 | > 100 | > 100 | 44.5 | – | > 100 | 59.4 µM | > 100 µM | 50.2 | > 100 | – | 4.71 µM | 25.3 | 4.42 µM | 23.1 | 17.6 | 15.7 | 8.29 | 20.9 µM | – | –

Reference: PubChem BioAssay (NCI)
